Test results taken from patent US12516038B2, “Inhibitors of antigen presentation by HLA-DR” (Janssen Pharmaceutica NV, priority 2020, dated 2026).

Legend:
HLA-DRB1*0401 = HLA-DRB1*0401 (Homo sapiens (Human), UniProt P01903+P01911, A100K/A169T/DEL228-266/F76Y/I96L/K127E/L162R/M171V/N62H/P40V/Q125Y/R42H/S133A/S149N/S66Y/V115G/V209L/W38E); assay: HLA-DR4 HTRF assay; type: binding; conditions: inhibition of loading of Alexa Fluor 647-labeled Cit-CII peptide onto HLA-DR4 (CLIP cleaved)
Source text: (§1) The screening was made through two sets of HLA-DR/peptide-dependent assays: a peptide-dependent Homogeneous Time Resolved Fluorescence (HTRF) binding assay followed by an HLA-DR dependent, peptide-specific T cell functional assay (HLA-DR4-restricted peptide-specific T cell-based assay hybridoma assay). The HTRF binding assay was designed to measure the ability of the small molecule to inhibit the loading of a fluorescently labeled high-affinity peptide onto HLA-DR peptide binding groove. The peptide-specific T cell functional assay assesses T cell activation resulting from proper peptide presentation onto HLA-DR expressed on the surface of the antigen-presenting cells to the T cell and is used to screen compounds able to inhibit such HLA-DR/peptide-dependent T cell activation.
The HLA-DR4 HTRF assay is based on HTRF technology and designed to measure ability of compounds to prevent loading of high-affinity Alexa Fluor 647-labeled Citrullinated Collagen 111236-1249 peptide (named Cit-CII/AF647, aa1236-1249, LQYM-Cit-ADQAAGGLR; Alexa Fluor 647 dye commercially available from Invitrogen) onto HLA-DRB1*0401. The HTRF assay technology is based on the energy transfer between two fluorophores, a donor and an acceptor, when in close proximity. The HLA-DR4 protein construct was uniquely designed for this assay and has (i) the α and […] subunits fused to human Fc chains and (ii) the invariant chain-associated peptide (CLIP peptide, aa85-101), the universal moderate/low-affinity HLA-DR binder, attached to the beta chain through a HRV3C protease-cleavable linker.
Because of the low stability of peptide free HLA-DR4 heterodimer, the construct was purified and delivered with CLIP peptide attached to the N-terminal of the β chain. The HLA-DR4 heterodimer was pre-treated with 3 μL HRV3C protease (Novagen E71493-3) (˜2 U/μL) per mg of the cleavable protein to cleave CLIP peptide and incubated overnight (>16 hrs) at 4° C. This method yielded at least 80% cleavage and allowed the CLIP peptide to be potentially exchanged with the fluorescently labeled high affinity cit-CII1236-1249 peptide. A batch of […] protein with CLIP cleaved was prepared for multiple experiments and was stable for several months when stored at 4° C.
In this assay, anti-human Fc antibody labeled with Tb-Cryptate probe was used as the donor (commercially available from Cisbio—PAb Anti-human IgG-Tb Cryptate, Cat #61HFCTAB) and high affinity peptide Citrullinated CII (cit-CII) labeled with Alexa 647 fluorophore was utilized as the acceptor. Inhibitors of the exchange of the pre-cleaved CLIP peptide for the high affinity cit-CII1236-1249 peptide onto HLA-DRB1*04:01 caused a decrease in HTRF signal as measured by the ratio of the 665 nm/620 nm emitted signal. Screening compounds were robotically pre-dispensed (150 nL, Hummingbird, DigiLab/CyBio AG) onto black, round bottom, nontreated, 1536-well assay plates (Corning #3939), were incubated with 3 nM HLA-DR4 (with CLIP cleaved) plus 1 nM Human IgG-Tb (anti-Fc-Tb) Antibody for 45 min prior to addition of 40 nM Cit-CII peptide labeled with Alexa-647. The negative control was DMSO plus 1 nM Human IgG-Tb (anti-Fc-Tb) Antibody, incubated for 45 minutes before addition of 40 nM Cit-CII peptide labeled with Alexa-647. The positive control was DMSO plus 3 nM HLA-DR4 (with CLIP cleaved) plus 1 nM Human IgG-Tb (anti-Fc-Tb) Antibody with 40 nM Cit-CII peptide labeled with Alexa-647 added after a 45-minute incubation. Plates were centrifuged at 1000 rpm for 1 minute and then incubated at 37° C., at 90% relative humidity for 90 minutes. After incubation, plates were read on a spectrophotometer, the Pherastar FS (BMG Labtech), in HTRF mode. The HTRF ratio as well as percent inhibition was calculated. Curve fitting and IC50 calculation for dose response data was performed by Microsoft Excel, 3DX (Janssen proprietary software) or Graphpad Prism (Graphpad Software, San Diego, CA). […]

[1] = tested on: HLA-DR4 restricted mouse T cell hybridoma line (DR4.CII.36.8) with HLA-DRB1*04:01-expressing Boleth cells; assay: HLA-DR4-restricted peptide-specific T cell-based assay (hybridoma assay); conditions: 6 h, inhibition of IL-2 production, CII259-273 peptide presented by Boleth cells
Source text: as §1
HLA-DR4-Restricted Peptide-Specific T Cell-Based Assay (Hybridoma Assay)
The hybridoma assay was used to measure compound inhibition of TL-2 production from an HLA-DR4 restricted mouse T cell hybridoma line (DR4.CII.36.8) that was antigen-specific for collagen II259-273 (CII259-273) peptide when presented with an HLA-DR4 expressing Antigen Presenting Cell (APC) cell line (i.e., Boleth).
To the HLA-DRB1*04:01-expressing B cell line (Boleth cell line from International Histocompatibility Working Group (IHWG), ref #IHW09031) was presented the collagen II 259-273 peptide (CII259-273, GIAGFKGEQGPKGEP) to mouse T cell hybridoma (DR4.CII.36.8 T cell hybridoma; clone 36.8, expressing a CII259-273-specific, HLA-DRB1*04:01-restricted T cell receptor). Upon proper CII259-273 peptide presentation, the T cell hybridoma was activated and thus produced IL-2 cytokine, whose level in the cell culture supernatant was detected using mouse IL-2 AlphaLISA kit (Perkin Elmer, Cat: AL511F).
This assay was performed in a 384-well plate (polypropylene V-bottom Greiner bio-one, ref #784075) by: (i) pre-incubation of 20 μL of 1.25 million/mL Boleth cells (25,000 cells) resuspended in DMEM/1% fetal calf serum (FCS; Gibco, ref #16140-071) with 20 μL of 2.5× final concentration of compound of interest in DMEM/1% serum/0.75% DMSO at 37° C. for 1 hr in the incubator, then (ii) 10 μL of 5 million/mL (50,000 cells) DR4.CII.36.8 T cell hybridoma cells resuspended in DMEM/1% FCS was added and incubated for 6 h at 37° C. in the incubator. Supernatant was then collected and mouse IL-2 detected using AlphaLISA kit (ref #AL511F). Compounds were tested in duplicate, with 8-point titration. Mean±SD of AlphaLISA units at each compound concentration was used for compound IC50 calculation. The negative control for this experiment was run without peptide stimulation and used a DMSO vehicle wherein no compound of interest was added. The positive control was run with peptide stimulation and used a DMSO vehicle wherein no compound of interest was added. Both the negative and positive controls were run in 8 replicates each. Curve fitting and IC50 calculation for dose response data was performed by GraphPad software 6 or higher (GraphPad Software, San Diego, CA). Dose response data was plotted versus the log of compound concentration and IC50 was determined using 4-parameter logistic (4-PL) curve fitting.

SMILES	IC50 (HLA-DRB1*0401) [nM]	IC50 ([1]; Mus musculus, T-cell) [µM]	IC50 [1] [µM]
Cc1cc([C@H](Oc2ccc3c(c2C#N)OCCC3=O)c2ccc(C(N)=O)cc2)cc(C)n1 (single isomer, unassigned) [Example 110a, (*R)-4-(((8-cyano-4-oxochroman-7-yl)oxy)(2,6-dimethylpyridin-4-yl)methyl)benzamide]	550	0.12	
Cc1cc([C@H](Oc2cc3c(cc2F)C(=O)CCO3)c2ccc(C(N)=O)cc2)cc(C)n1 (single isomer, unassigned) [Example 109a, (*R)-4-((2,6-dimethylpyridin-4-yl)((6-fluoro-4-oxochroman-7-yl)oxy)methyl)benzamide]	210		1.1
Cc1cnccc1[C@@H](Oc1ccc2c(c1)OCCC2=O)c1ccc(C(N)=O)cc1 (single isomer, unassigned) [Example 21b, (*S)-4-((3-Methylpyridin-4-yl)((4-oxochroman-7-yl)oxy)methyl)benzamide]	640	5.4	
Cc1c(O[C@@H](c2ccc(C#N)cc2)c2ccc(C(N)=O)cc2)ccc2c1OCCC2=O (single isomer, unassigned) [Example 59b, (*S)-4-((4-cyanophenyl)((8-methyl-4-oxochroman-7-yl)oxy)methyl)benzamide]	1300	> 15	
NC(=O)c1ccc([C@@H](Oc2ccc3c(c2)OCCC3=O)c2ccnc(N)c2)cc1 (single isomer, unassigned) [Example 28a, (*R)-4-((2-aminopyridin-4-yl)((4-oxochroman-7-yl)oxy)methyl)benzamide]	1800	6.9	
Cc1c(O[C@@H](c2ccc(C(N)=O)cc2)c2ccccc2F)ccc2c1OCCC2=O (single isomer, unassigned) [Example 68b, (*S)-4-((2-Fluorophenyl)((8-methyl-4-oxochroman-7-yl)oxy)methyl)benzamide]	5400	> 15	
Cc1c(O[C@H](c2ccc(C(N)=O)cc2)c2cccc[n+]2[O-])ccc2c1OCCC2=O (single isomer, unassigned) [Example 65a, (*R)-2-((4-carbamoylphenyl)((8-methyl-4-oxochroman-7-yl)oxy)methyl)pyridine 1-oxide]	30000		> 15
COc1c(O[C@H](c2ccncc2)c2ccc(C(N)=O)cc2)ccc2c1OCCC2=O (single isomer, unassigned) [Example 100b, (*S)-4-(((8-methoxy-4-oxochroman-7-yl)oxy)(pyridin-4-yl)methyl)benzamide]	9000	2.3	
Cc1cc([C@H](Oc2ccc3c(c2C)OCCC3=O)c2ccc(C(N)=O)cc2)cc(C)n1 (single isomer, unassigned) [Example 111a, (*R)-4-((2,6-dimethylpyridin-4-yl)((8-methyl-4-oxochroman-7-yl)oxy)methyl)benzamide]	490	0.6	
COc1c(O[C@@H](c2ccncc2)c2ccc(C(N)=O)cc2)ccc2c1OCCC2=O (single isomer, unassigned) [Example 100a, (*R)-4-(((8-methoxy-4-oxochroman-7-yl)oxy)(pyridin-4-yl)methyl)benzamide]	6400	7.6	
Cc1c(O[C@@H](c2ccncc2)c2ccc(S(C)(=O)=O)cc2)c(F)cc2c1OCCC2=O (single isomer, unassigned) [Example 104a, (*R)-6-fluoro-8-methyl-7-((4-(methylsulfonyl)phenyl)(pyridin-4-yl)methoxy)chroman-4-one]	290	3.9	
Cc1c(O[C@@H](c2ccc(C(N)=O)cc2)c2ccc(F)c(F)c2)c(F)cc2c1OCCC2=O (single isomer, unassigned) [Example 91b, (*S)-4-((3,4-difluorophenyl)((6-fluoro-8-methyl-4-oxochroman-7-yl)oxy)methyl)benzamide]	350	> 15	
CC[C@@H]1CC(=O)c2ccc(OCc3ccncc3OC)cc2O1 (single isomer, unassigned) [Example 119a, (*R)-2-ethyl-7-((3-methoxypyridin-4-yl)methoxy)chroman-4-one]	540	13	
COc1ccc([C@H](Oc2c(F)cc3c(c2C)OCCC3=O)c2ccncc2)cc1 (single isomer, unassigned) [Example 103b, (*S)-6-fluoro-7-((4-methoxyphenyl)(pyridin-4-yl)methoxy)-8-methylchroman-4-one]	2800	15	
Cc1cc2c(c(C)c1O[C@@H](c1ccc(F)cc1)c1ccc(C(N)=O)cc1)OCCC2=O (single isomer, unassigned) [Example 90a, (*R)-4-(((6,8-dimethyl-4-oxochroman-7-yl)oxy)(4-fluorophenyl)methyl)benzamide]	520	> 15	
NC(=O)c1ccccc1[C@@H](Oc1ccc2c(c1)OCCC2=O)c1ccncc1 (single isomer, unassigned) [Example 8b, (*S)-2-(((4-Oxochroman-7-yl)oxy)(pyridin-4-yl)methyl)benzamide]	820	6.5	
N#Cc1ccc(C(Oc2ccc3c(c2)OCCC3=O)c2ccncc2)cc1 (racemic) [Example 10, (R,S)-4-(((4-Oxochroman-7-yl)oxy)(pyridin-4-yl)methyl)benzonitrile]	770	8.7	
